“Also recorded” adds a separate entry of the source. Read-outs that look alike come from different tables or passages of the source.
Assays:
[1] = target: T1, tau (Homo sapiens, UniProt P10636); test: Tau biosensor dose titrations (HEK293T tau biosensor cells seeded with AD brain homogenate);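 for all read-outs here: AD brain homogenate preincubated 16 h with compound, then transfected into tau biosensor cells, seeding read as tau puncta counted by imaging, normalized to cell confluence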; format: cell-based; conditions: for IC50: read-out: IC50 low tau load; for dose-dependent effect of NT on tau seeding: AD brain homogenate pretreated with indicated amounts of NT (Fig. 3A); for effect on seeding, extended dose series: NT concentrations tested from 25 nM to 100 µM (fig. S6)
[2] = target: T1, tau; test: MCE Phenols Library screening, tau biosensor cell seeding assay (AvZ); format: cell-based; conditions: for Z repl 1 / Z Repl 2: Z score; for Z repl 1 / raw data 1: replicate 1; for Z Repl 2 / raw data 2: replicate 2; for AvZ (average z score of seeding, SDs from the mean level of seeding): 10 μM phenol in cell cultures, AD brain homogenate preincubated 16 hours, two biological replicates, positive = catalyzes seeding, negative = inhibits
[3] = average Z score of the two replicates, MCE Phenols Library screen
[4] = average Z score of the two replicates, tau biosensor seeding, MCE Phenols Library screen
[5] = average puncta of the two replicates
[6] = average Z score of two replicates, Phenols Library screen

T1 sequence (P10636 623-695 limits assumed): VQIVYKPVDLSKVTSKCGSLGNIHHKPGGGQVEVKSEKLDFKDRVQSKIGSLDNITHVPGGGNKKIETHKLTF

Z repl 1 [2] | Z Repl 2 [2] | raw data 1 ([2]; puncta) | raw data 2 ([2]; puncta) | av Z [2, 3] | Molecule | av puncta ([2]; average of raw data 1 and 2) | further results
 |  |  |  |  | N[C@H](Cc1ccc(O)c(O)c1)C(=O)O [D-dopa] |  | IC50 ([1]; AD brain homogenate diluted to […] ptau): 1900 nM
 |  |  |  |  | O=C(O)Cc1ccc(O)c(O)c1 [DOPAC, 3,4-dihydroxyphenylacetic acid] |  | dose-dependent effect of NT on tau seeding [1]: inhibited seeding with effects similar to DA
 |  |  |  |  | CNC[C@H](O)c1ccc(O)c(O)c1 [EP, epinephrine, reference compound] |  | dose-dependent effect of NT on tau seeding [1]: inhibited seeding with the next greatest efficacy
 |  |  |  |  | NCCCC(=O)O [GABA, γ-aminobutyric acid] |  | dose-dependent effect of NT on tau seeding [1]: no significant inhibitory effects on tau seeding; effect on seeding, extended dose series [1]: No inhibitory effect
 |  |  |  |  | NC[C@H](O)c1ccc(O)c(O)c1 [NE, norepinephrine, reference compound] |  | IC50 ([1]; AD brain homogenate diluted to 0.11 ng/μl ptau): > 25000 nM
0.632 | -0.232 | 33940.8 | 10285.2 |  | O=c1cc(-c2ccc(O)cc2)oc2c([C@@H]3O[C@H](CO)[C@@H](O[C@@H]4O[C@H](CO)[C@@H](O)[C@H](O)[C@H]4O)[C@H](O)[C@H]3O)c(O)cc(O)c12 [Vitexin-4''-O-glucoside] | 22113 | av Z ([2]; average Z score of the two replicates, tau seeding): 0.2
-0.852 | -1.136 | 16120.2 | 631.756 | -0.994 | COc1cc(O)c2c(c1)oc(=O)c1c3cc(O)c(O)cc3oc21 [Wedelolactone] | 8376 | 
0.851 | 1.113 | 36560.6 | 24654.2 |  | COc1c(O)cc(O)c2c(=O)cc(-c3ccccc3)oc12 [Wogonin] | 30607.4 | av Z [2, 4]: 0.982
-0.039 | -0.756 |  |  | -0.398 | COc1c(O[C@@H]2O[C@H](C(=O)O)[C@@H](O)[C@H](O)[C@H]2O)cc(O)c2c(=O)cc(-c3ccccc3)oc12 [Wogonoside] |  | av puncta [2, 5]: 15284.9; raw data 1 ([2]; raw puncta): 25879; raw data 2 ([2]; raw puncta): 4690.87
-0.889 | -0.335 | 15671.6 | 9188.09 | -0.612 | COc1ccc(-c2oc3c(CCC(C)(C)O)c(O)cc(O)c3c(=O)c2O)cc1 [Wushanicaritin] |  | av puncta [2, 5]: 12429.8
0.422 | 0.877 | 31416.6 | 22131.8 |  | COc1cc(O)c(C(C)=O)c(OC)c1 [Xanthoxylin] | 26774.2 | AvZ (average z score of seeding, SDs from the mean level of seeding) [2]: 0.65
0.385 | 0.874 | 30973.3 | 22095.4 |  | CCCCC[C@H](O)CC(=O)CCc1ccc(O)c(OC)c1 [[6]-Gingerol] | 26534.4 | 
-0.527 | -0.802 | 20022.1 | 4200.38 |  | CCCCCCC/C=C/C(=O)CCc1ccc(O)c(OC)c1 [[8]-Shogaol] |  | AvZ (average z score of seeding, SDs from the mean level of seeding) [2]: -0.665; av puncta [2, 5]: 12111.2
-0.951 | -0.064 | 14936.2 | 12081.7 |  | CCCCCCCCC/C=C/C(=O)CCc1ccc(O)c(OC)c1 [[10]-Shogaol] |  | av puncta [2, 5]: 13509
 |  |  |  |  | CC(=O)OCC[N+](C)(C)C [acetylcholine] |  | dose-dependent effect of NT on tau seeding [1]: no significant inhibitory effects on tau seeding; effect on seeding, extended dose series [1]: No inhibitory effect
 |  |  |  |  | Nc1ncnc2c1ncn2[C@@H]1O[C@H](CO)[C@@H](O)[C@H]1O [adenosine, reference compound] |  | dose-dependent effect of NT on tau seeding [1]: no significant inhibitory effects on tau seeding; also recorded: dose-dependently catalyzed tau seeding
-0.244 | -0.19 |  |  | -0.217 | COc1cc2oc3cc(O)c(OC)c(CC=C(C)C)c3c(=O)c2c(O)c1CC=C(C)C [beta-Mangostin] |  | av puncta [2, 5]: 17083.5; raw data 1 ([2]; raw puncta): 23425.5; raw data 2 ([2]; raw puncta): 10741.6
 |  |  |  |  | N[C@@H](CCC(=O)O)C(=O)O [glutamate] |  | dose-dependent effect of NT on tau seeding [1]: no significant inhibitory effects on tau seeding; effect on seeding, extended dose series [1]: No inhibitory effect
-0.724 | 0.15 |  |  |  | O=C(O)C=Cc1ccc(O)cc1 [p-Coumaric acid] |  | AvZ (average z score of seeding, SDs from the mean level of seeding) [2]: -0.287; av puncta [2, 5]: 16011.2; raw data 1 ([2]; raw puncta): 17659.3; raw data 2 ([2]; raw puncta): 14363.1
0.77 | 1.484 | 35598.4 | 28613.9 |  | O=C(O)C(O)c1ccc(O)cc1 (stereo not shown) [p-Hydroxymandelic acid] | 32106.2 | AvZ (average z score of seeding, SDs from the mean level of seeding) [2]: 1.127
-0.181 | -0.689 |  |  | -0.435 | Corylin |  | av puncta [2, 5]: 14787.4; raw data 1 ([2]; raw puncta): 24170.2; raw data 2 ([2]; raw puncta): 5404.62
-0.874 | -0.481 | 15857.3 | 7628.39 | -0.677 | Gigantol |  | 
-2.185 | -1.19 | 119.783 | 55.562 | -1.687 | Punicalagin | 87.672 | 
-2.134 | -1.192 | 725.667 | 34.42 | -1.663 | Punicalin | 380.043 | 
 |  | 392.747 | 253.87 |  | Theaflavin 3,3'-digallate | 323.309 | 
-1.145 | -0.22 | 12607.7 | 10414 |  | Thymopentin [reference compound] |  | AvZ (average z score of seeding, SDs from the mean level of seeding) [2]: -0.682; av puncta [2, 5]: 11510.9

Molecule | Z repl 1 [2] | Z Repl 2 [2] | raw data 1 ([2]; puncta) | raw data 2 ([2]; puncta) | av Z [2, 3] | av puncta ([2]; average of raw data 1 and 2) | further results
O=C(O)c1cc(O)c2cccc(O)c2n1 [Xanthurenic acid] | 0.734 | 1.586 | 35156.1 | 29703.1 |  | 32429.6 | av Z [2, 4]: 1.16
C[C@H]1CCCC(=O)CCCCCc2cc(O)cc(O)c2C(=O)O1 [Zearalanone] | 0.089 | -0.477 | 27422.4 | 7675.78 |  | 17549.1 | av Z [2, 6]: -0.194
C[C@H]1CCCC(=O)CCC/C=C/c2cc(O)cc(O)c2C(=O)O1 [Zearalenone] | -0.335 | 0.423 | 22326 | 17279.6 |  | 19802.8 | av Z [2, 6]: 0.044
(+)-Usnic acid | 0.232 | -0.478 | 29133.2 | 7663.33 |  | 18398.3 | av Z [2, 6]: -0.123
Alpinetin | -0.059 | -0.789 |  |  | -0.424 |  | av puncta [2, 5]: 14986.7; raw data 1 ([2]; raw puncta): 25635; raw data 2 ([2]; raw puncta): 4338.39
Bavachinin | 0.618 | -0.383 | 33763.9 | 8675.17 |  | 21219.6 | av Z [2, 6]: 0.117
Echinacoside | 0.125 | -0.609 |  |  | -0.242 |  | av puncta [2, 5]: 17056.9; raw data 1 ([2]; raw puncta): 27847.2; raw data 2 ([2]; raw puncta): 6266.63
Engeletin | -1.222 | -0.399 | 11684.3 | 8500.41 | -0.81 | 10092.3 | 
Isoliquiritin apioside | 0.567 | -0.451 | 33153.4 | 7948.29 |  | 20550.8 | av Z [2, 6]: 0.058
Liquiritin apioside | 0.133 | -0.022 | 27949.8 | 12528.3 |  | 20239.1 | av Z [2, 6]: 0.056
Medicarpin | -0.987 | -0.112 | 14494.9 | 11569.9 | -0.55 |  | av puncta [2, 5]: 13032.4
Myricitrin | -0.619 | -1.178 | 18913 | 187.899 | -0.899 | 9550.45 | 
Neosmitilbin | 0.198 | -0.157 | 28721.6 | 11093.4 |  | 19907.5 | av Z [2, 6]: 0.021
Rhodiosin | -1.331 | -1.146 | 10373.6 | 522.423 | -1.239 | 5448.02 | 
Tubuloside A | 0.218 | 0.274 | 28967.6 | 15687.1 |  | 22327.4 | 

— paper PMC11784839, “Monoaminergic neurotransmitters are bimodal effectors of tau aggregation” (Science Advances, 2025)
